Assay results from patent EP3851117A1, “INHIBITORS OF INTRACELLULAR BACTERIAL GROWTH AND PERSISTENCE AS ANTIBIOTICS” (Consejo Superior de Investigaciones Científicas (CSIC), priority 2020, dated 2021).
≈ marks a conversion by molar mass, not a printed value. Entries after “also recorded” stand apart in the source; their conditions may differ.

What was measured:
[1] = tested on: S. Typhimurium (wild-type); test: Spot dilution assay on PCN plates with antibiotic; type: cell-based; conditions: MEC 5 µg/mL, ATM 0.125 µg/mL
Experimental: (§1) PCN plates for spot dilution assays were prepared by mixing 7.5 ml of sterile PCN medium (2x concentrated) at the desired pH and 7.5 ml of autoclaved agar (30 mg/mL). The mixture was supplemented with 0.01% (w/v) yeast extract (YE). Cultures were grown in PCN pH 4.6 medium overnight and adjusted to same optical density values. These cultures were serially 10-fold diluted. 5 µl of each dilution was spotted onto PCN plates with or without antibiotic added.

[2] = tested on: S. Typhimurium mutants lacking PBP3SAL; test: Spot dilution assay on PCN plates with antibiotic; type: cell-based; conditions: pH 4.6
Experimental: as §1

[3] = tested on: S. Typhimurium wild-type bacteria; test: Antibiotic susceptibility with MIC strips (E-test) on PCN agar plates with 0.01% YE; type: cell-based; conditions: for MIC: Salmonella enterica, TYPHIMURIUM; for susceptibility following the switch to acid pH: switch to acid pH (4.6), PBP3SAL expression
Text: (§2) S. Typhimurium cultures grown in PCN 4.6 were normalized to an optical density at 600 nm (OD600) of 0.1 and diluted 1:10. One hundred twenty microliters of this dilution were spread onto PCN plates using glass beads. The assays were repeated at least in three independent biological replicates.

[4] = tested on: S. Typhimurium bacteria lacking PBP3 (ΔPBP3 mutant); test: as above; type: cell-based; conditions: Salmonella enterica, pH 4.6, read-out: MIC value
Experimental: as §2, with “Antibiotic susceptibility was determined using MIC strips (MIC Test Strip; Liofilchem) in PCN agar plates containing 0.01% YE at neutral or acid pH 4.6. S.” for “S.”

[5] = tested on: S. Typhimurium wild-type bacteria; test: BALB/c mice challenge, bacterial load in spleen; type: in vivo; conditions: intraperitoneal, every 24 h
Experimental: (§3) Groups of three 8-week-old female BALB/c mice were inoculated with the following isogenic strains: MD5064 (PBP2SAL::3xFlag PBP3SAL::3xFlag), MD5063 (ΔPBP2, ΔPBP2SAL), MD5544 (ΔPBP2 ΔPBP2SAL pPBP2SAL::PBP2), MD5542 (ΔPBP3, ΔPBP3SAL and ΔPBP3 ΔPBP3SAL pPBP3SAL::PBP3). The doses used were 2x10^3 CFU in 200 µl of sterile PBS. Along four days, mice received intraperitoneally every 24 h a regime consisting in 10 mg mecillinam (MEC) or 2.5 mg aztreonam (ATM) per animal in 200 µl of sterile water. Mice were sacrificed four days post inoculation and spleens homogenized in 5 ml of sterile PBS. Aliquots (100 µl) of 10-fold serial dilutions of the homogenates were cultured in LB pH 4.6 plates to quantify the number of viable S. Typhimurium. To detect PBPs in vivo, spleen extracts from three mice were prepared at 72 hpi as described previously (Dominguez-Bernal, G. et al. Mol Microbiol. 2004; 53: 1437-1449). The protocols used in the study were approved by the Consejería de Medio Ambiente de la Comunidad de Madrid (ref. PROEX 110/19).

[6] = tested on: S. Typhimurium mutant lacking PBP3; test: BALB/c mice challenge, bacterial load in spleen; type: in vivo; conditions: intraperitoneal, every 24 h
Experimental: as §3

[7] = tested on: S. Typhimurium bacteria lacking PBP3SAL; test: BALB/c mice challenge, bacterial load in spleen; type: in vivo; conditions: intraperitoneal, every 24 h
Experimental: as §3

[8] = tested on: intra-phagosomal S. Typhimurium lacking PBP3SAL in RAW 264.7 macrophages; test: Macrophage infection and colony-forming unit counting; type: cell-based; conditions: 10 µg/mL added to infected macrophages; compared with bacteria lacking PBP3
Experimental: The murine macrophage line RAW 264.7 (400319, Cell Lines Service, CLS, https://clsgmbh.de/) was cultured in Dulbecco's modified Eagle's medium (DMEM) with 5% fetal bovine serum (FBS) and 4 mM glutamine in an incubator at 37°C in a 5% CO2 atmosphere. RAW 264.7 macrophages were seeded in 24-well plates (353047, Falcon) at a density of 2x10^5 cells/well and pre-cultured for 24 h before infection. Macrophages were activated with 2.5 ng/ml interferon-γ (315-05, Peprotech) 24 h prior infection. Culture medium was replaced by fresh medium without interferon-γ and infected with S. Typhimurium strains at a multiplicity of infection (MOI) of 10:1 during 10 min. Macrophages were washed with PBS supplemented with 0.5 mM MgCl2 and 0.9 mM CaCl2 (complete PBS) and extracellular non-phagocytosed bacteria were killed by incubation in medium containing gentamicin (100 µg/ml for 1 h, followed by 10 µg/ml for the remaining incubation). If indicated, aztreonam (ATM) (10 µg/mL) was added at 1 hpi. Infected macrophages were lysed at 1 and 8 hpi. Colony-forming units (CFU) were determined after two washes of the culture with complete PBS buffer, lysis with sterile solution containing 1% (w/v) Triton X 100 and 0.1% (w/v) sodium dodecyl sulfate (SDS) in PBS and plating on LB pH 7.0 or LB pH 4.6. The assays were repeated at least in three independent biological replicates.

[9] = tested on: S. Typhimurium mutant lacking PBP2SAL; test: Spot dilution assay on PCN plates with antibiotic; type: cell-based; conditions: pH 4.6
Experimental: as §1

[10] = tested on: S. Typhimurium mutant lacking PBP2; test: Spot dilution assay on PCN plates with antibiotic; type: cell-based
Experimental: as §1

[11] = tested on: S. Typhimurium bacteria lacking PBP2SAL; test: BALB/c mice challenge, bacterial load in spleen; type: in vivo; conditions: intraperitoneal, every 24 h
Experimental: as §3

[12] = tested on: S. Typhimurium mutant lacking PBP2; test: BALB/c mice challenge, bacterial load in spleen; type: in vivo; conditions: intraperitoneal, every 24 h
Experimental: as §3

[13] = pH 4.6, PCN-0.01% yeast extract

C[C@H]1[C@H](NC(=O)/C(=N\OC(C)(C)C(=O)O)c2csc(N)n2)C(=O)N1S(=O)(=O)O [ATM, aztreonam]
susceptibility (bacterial growth) [1, 13]: not at pH 4.6; also recorded: resistant
susceptibility (bacterial growth) ([1]; pH 7.4): inhibit bacterial growth; also recorded: susceptible
antimicrobial activity [2]: showed antimicrobial activity
MIC ([3]; pH 4.6): 0.125 µg/mL (≈ 0.287 µM)
MIC ([3]; pH 7.4): < 0.016 µg/mL
MIC [4]: 0.75 µg/mL (≈ 1.72 µM)
load of bacteria in spleen [5]: did not result in a statistically significant decrease
effect on bacterial loads [6]: lesser effect
bacterial loads [7]: significant decrease of bacterial loads
susceptibility of intra-phagosomal bacteria [8]: more susceptible

CC1(C)S[C@@H]2[C@H](/N=C/N3CCCCCC3)C(=O)N2[C@H]1C(=O)O [MEC, mecillinam]
susceptibility (bacterial growth) [1, 13]: not at pH 4.6
susceptibility (bacterial growth) ([1]; pH 7.4): inhibit bacterial growth
susceptibility [9]: does not alter susceptibility
susceptibility ([10]; pH 4.6): does not alter susceptibility
susceptibility ([10]; pH 7.4): resistant
load of bacteria in spleen [5]: did not result in a statistically significant decrease; also recorded: slightly effect of reduced viability
bacterial loads [11]: significant decrease of bacterial loads
effect on bacterial loads [12]: lesser effect

CO/N=C(\C(=O)N[C@@H]1C(=O)N2C(C(=O)O)=C(COC(C)=O)CS[C@H]12)c1csc(N)n1 [cefotaxime]
susceptibility following the switch to acid pH [3]: decreased susceptibility

CC(C)(O/N=C(\C(=O)N[C@@H]1C(=O)N2C(C(=O)[O-])=C(C[n+]3ccccc3)CS[C@H]12)c1csc(N)n1)C(=O)O [ceftazidime]
susceptibility following the switch to acid pH [3]: decreased susceptibility

CO/N=C(\C(=O)N[C@@H]1C(=O)N2C(C(=O)O)=C(COC(N)=O)CS[C@H]12)c1ccco1 [cefuroxime]
susceptibility following the switch to acid pH [3]: decreased susceptibility

CC(=O)OCC1=C(C(=O)O)N2C(=O)[C@@H](NC(=O)Cc3cccs3)[C@H]2SC1 [cephalotin]
susceptibility following the switch to acid pH [3]: decreased susceptibility
